The NIST ThermoML archive (doi:10.1016/j.tca.2016.04.007)
± gives the expanded uncertainty stated by the source.

Columns and labels:
[1] = Crystal; DTA
[2] = Molar enthalpy of transition or fusion; details: Crystal; DSC

| Normal melting temperature [1] [°C] | Molar enthalpy of transition or fusion [2] [kcal/mol] | Structure (SMILES) |
| --- | --- | --- |
| 23.50 ± 3 | 12.9 ± 0.311 | CCCCCCCCCCCCCCCCCCBr [1-bromooctadecane] |
| 14.20 ± 3 | 10.9 ± 0.287 | CCCCCCCCCCCCCCCCBr [1-bromohexadecane] |
